The nature of data set [1]: Stability of compounds in human plasma. The procedure: Briefly test compounds (20 μM) were prepared from a 1 mM stock solution. The human plasma sample (200 μl) was diluted with 160 μl phosphate-buffer saline (PBS, pH 7.4) to a concentration of 50% v/v before use. Solutions were then vortexed and placed on a 37° C. shaker and shaken gently for 10 minutes. 40 μl of the test compounds were then added to the plasma sample and vortexed. For the reaction time t=0 hour, 50 μl of sample was immediately transferred into an eppendorf tube and quenched with 150 μl cold acetonitrile. The remaining plasma solution was incubated and shaken at 37° C. Other samples were collected at time points of 0, 1, 3, 6 and 24 hours whereby 50 μl aliquots were removed and quenched with 150 μl cold acetonitrile. All samples were placed in a 4° C. fridge for 10 minutes then centrifuged at 3000 rpm for 15 minutes. The supernatant (100 μl) was transferred to a glass vial insert for LCMS analysis. The percentage of test compounds remaining at the individual time points relative to sample at time point 0 hour were reported.
Plasma: Human Plasma (Pooled Normal Human Plasma Heparin Anticoagulant 50 mL (IPLA-2 N-04 lot IR09-1001, originally from Innovative Research and imported by BioCore).
All compounds in 100% water (40 μL in 400 μL assay volume equivalent […])
Compounds: 40 μL of the vancomycin derivative solution was added to 160 μL of PBS (pH 7.4) respectively in an Eppendorf tube. 600 μL of cold acetonitrile was added, the tube vortexed and transferred to a glass vial for LC-MS analysis.
Eucatropine: 200 μL of plasma and 190 μL of buffer were vortexed, shaken at 37° C. for 10 minutes. 10 μL of eucatropine solution was then added and the tube vortexed. A 50 μL aliquot was immediately transferred to an Eppendorf tube, 150 μL of cold acetonitrile added and the tube transferred to a 4° C. fridge for 10 minutes. The remaining plasma solution was then transferred to the incubator and shaken at 37° C. The tube was retrieved from the fridge, centrifuged at 3000 rpm for 15 min and 100 μL of supernatant transferred to a glass vial insert for LC-MS analysis. 50 μL aliquots were processed as above at 1, […], 3, 6 and 24 hours and 5 μL was injected into triple quad MS system for analysis. Vancomycin derivatives: 200 μL of plasma and 160 μL of buffer were vortexed and shaken at 37° C. for 10 minutes. 40 μL of compound was then added and the sample was processed as above.

Data set [2] has as its system Streptococcus pneumoniae MDR ATCC 700677. Description: MIC assay, S. pneumoniae MDR ATCC 700677. The settings on record: 24 h incubation, visual reading. The class given is cell-based. The essentials: (§1)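 Overnight MHB cultures at 37° C were diluted 40-fold and grown 2-3 hrs to mid-log, then added at 5×10e5 CFU/mL to twofold compound dilutions (8 to 0.003 μg/ml). Plates were incubated 24 h at 37° C and MIC scored by eye.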

Data set [3] concerns Enterococcus faecium MDR Van A ATCC 51559. The experiment in a line: MIC assay, E. faecium MDR Van A ATCC 51559. The class given is cell-based. The settings on record: 24 h incubation, visual reading. The gist of the method:
as §1

Data set [4] concerns Staphylococcus aureus MRSA ATCC 43300. The experiment in a line: MIC assay, S. aureus MRSA ATCC 43300. The class given is cell-based. The conditions noted are these: 24 h incubation, visual reading. The essentials: as §1
The mark [5] stands for this setting: 0 h (reference time point), 50% human plasma/PBS pH 7.4, 37° C.
The mark [6] stands for this setting: 1 h, 50% human plasma/PBS pH 7.4, 37° C.
Where [7] appears, read: 3 h, 50% human plasma/PBS pH 7.4, 37° C.
The mark [8] stands for this setting: 6 h, 50% human plasma/PBS pH 7.4, 37° C.
[9] abbreviates: 24 h, 50% human plasma/PBS pH 7.4, 37° C.

In the case of `CCCCCCCCCCC(=O)NCC(=O)N[C@@H](CO)C(=O)N[C@@H](CCCCN)C(=O)N[C@@H](CCCCN)C(=O)N[C@@H](CCCCN)C(=O)N[C@@H](CCCCNC(=O)[C@H]1NC(=O)[C@H]2NC(=O)[C@H](NC(=O)[C@@H]3NC(=O)[C@H](CC(N)=O)NC(=O)[C@H](NC(=O)[C@@H](CC(C)C)NC)[C@H](O)c4ccc(c(Cl)c4)Oc4cc3cc(c4O[C@@H]3O[C@H](CO)[C@@H](O)[C@H](O)[C@H]3O[C@H]3C[C@](C)(N)[C@H](O)[C@H](C)O3)Oc3ccc(cc3Cl)[C@H]2O)c2ccc(O)c(c2)-c2c(O)cc(O)cc21)C(=O)O` [MCC_000082, nC10CO-GSKKK-K(Vanc)-OH], the “% compound remaining after incubation in 50% human plasma” value (“% compound remaining after incubation” below) in data set [1] (setting [5]) was found to be 100%; in data set [1] (setting [6]), 136%; in data set [1] (setting [7]) it was 252%; in data set [1] (setting [8]), 241%; in data set [1] (setting [9]), 73%.

`CNC(CC(C)C)C(=O)NC1C(=O)NC(CC(N)=O)C(=O)NC2C(=O)NC3C(=O)NC(C(=O)NC(C(=O)NCCCCC(NC(=O)C(CCCCN)NC(=O)C(CCCCN)NC(=O)C(CCCCNC(=O)c4ccc(Oc5ccccc5)cc4)NC(=O)c4ccc(Oc5ccccc5)cc4)C(=O)O)c4cc(O)cc(O)c4-c4cc3ccc4O)C(O)c3ccc(c(Cl)c3)Oc3cc2cc(c3OC2OC(CO)C(O)C(O)C2OC2CC(C)(N)C(O)C(C)O2)Oc2ccc(cc2Cl)C1O` (stereo not shown) [MCC_000217, (4-PhO-PhCO)-K(4-PhO-PhCO)-KK-K(Vanc)-OH]: the “Minimum Inhibitory Concentration (MIC) S. pneumoniae ATCC 700677” value in data set [2] is “xxxxx (xxxxx = <0.01)”. In data set [3], the “Minimum Inhibitory Concentration (MIC) E. faecium ATCC51559” value is listed as “xx (xx = 1-4)”. The “% compound remaining after incubation” value in data set [1] (setting [5]) turned out to be 100%; in data set [1] (setting [6]) it was 107%; in data set [1] (setting [8]) it was 103%; in data set [1] (setting [9]), 99%. Also, the “Minimum Inhibitory Concentration (MIC) Staph. aureus ATCC43300” value in data set [4] is on record as “xxxxx (xxxxx = <0.01)”.

With `CCCCCCCCCCCCCC(=O)N[C@@H](CCCCN)C(=O)N[C@@H](CCCCN)C(=O)N[C@@H](CCCCN)C(=O)N[C@@H](CCCCNC(=O)[C@H]1NC(=O)[C@H]2NC(=O)[C@H](NC(=O)[C@@H]3NC(=O)[C@H](CC(N)=O)NC(=O)[C@H](NC(=O)[C@@H](CC(C)C)NC)[C@H](O)c4ccc(c(Cl)c4)Oc4cc3cc(c4O[C@@H]3O[C@H](CO)[C@@H](O)[C@H](O)[C@H]3O[C@H]3C[C@](C)(N)[C@H](O)[C@H](C)O3)Oc3ccc(cc3Cl)[C@H]2O)c2ccc(O)c(c2)-c2c(O)cc(O)cc21)C(=O)O` [MCC_000223, nC13CO-KKK-K(Vanc)-OH], the “Minimum Inhibitory Concentration (MIC) S. pneumoniae ATCC 700677” value in data set [2] was “xxxxx (xxxxx = <0.01)”. Further, the “Minimum Inhibitory Concentration (MIC) E. faecium ATCC51559” value in data set [3] is on record as “xxx (xxx = 0.1-<1)”. The “% compound remaining after incubation” value in data set [1] (setting [5]) was 100%; in data set [1] (setting [6]), 174%; in data set [1] (setting [7]), 164%; in data set [1] (setting [8]), 170%; in data set [1] (setting [9]), 139%. Further, in data set [4], the “Minimum Inhibitory Concentration (MIC) Staph. aureus ATCC43300” value was “xxxxx (xxxxx = <0.01)”.

Consider `CCCCCCCCCCCCCC(=O)N[C@@H](CCCCN)C(=O)N[C@@H](CCCCN)C(=O)NCC(=O)NCCNC(=O)[C@H]1NC(=O)[C@H]2NC(=O)[C@H](NC(=O)[C@@H]3NC(=O)[C@H](CC(N)=O)NC(=O)[C@H](NC(=O)[C@@H](CC(C)C)NC)[C@H](O)c4ccc(c(Cl)c4)Oc4cc3cc(c4O[C@@H]3O[C@H](CO)[C@@H](O)[C@H](O)[C@H]3O[C@H]3C[C@](C)(N)[C@H](O)[C@H](C)O3)Oc3ccc(cc3Cl)[C@H]2O)c2ccc(O)c(c2)-c2c(O)cc(O)cc21` [MCC_000226, nC13CO-KKG-NHC2NH-Vanc], for which the “Minimum Inhibitory Concentration (MIC) S. pneumoniae ATCC 700677” value in data set [2] is reported as “xxxxx (xxxxx = <0.01)”. For the same molecule, the “Minimum Inhibitory Concentration (MIC) E. faecium ATCC51559” value in data set [3] is listed as “xxx (xxx = 0.1-<1)”. Further, the “% compound remaining after incubation” value in data set [1] (setting [5]) was 100%; in data set [1] (setting [6]) it was 98%; in data set [1] (setting [7]), 137%; in data set [1] (setting [8]), 85%; in data set [1] (setting [9]), 87%. In addition, the “Minimum Inhibitory Concentration (MIC) Staph. aureus ATCC43300” value in data set [4] was “xxxxx (xxxxx = <0.01)”.

As for `CCCCCCCCCCCCCC(=O)N[C@H](CCCCN)C(=O)N[C@H](CCCCN)C(=O)NCC(=O)NCCNC(=O)[C@H]1NC(=O)[C@H]2NC(=O)[C@H](NC(=O)[C@@H]3NC(=O)[C@H](CC(N)=O)NC(=O)[C@H](NC(=O)[C@@H](CC(C)C)NC)[C@H](O)c4ccc(c(Cl)c4)Oc4cc3cc(c4O[C@@H]3O[C@H](CO)[C@@H](O)[C@H](O)[C@H]3O[C@H]3C[C@](C)(N)[C@H](O)[C@H](C)O3)Oc3ccc(cc3Cl)[C@H]2O)c2ccc(O)c(c2)-c2c(O)cc(O)cc21` [MCC_000227, nC13CO-kkG-NHC2NH-Vanc], the “Minimum Inhibitory Concentration (MIC) S. pneumoniae ATCC 700677” value in data set [2] was “xxxxx (xxxxx = <0.01)”. Besides, in data set [3], the “Minimum Inhibitory Concentration (MIC) E. faecium ATCC51559” value was “xx (xx = 1-4)”. Besides, the “% compound remaining after incubation” value turned out to be 100% in data set [1] (setting [5]); 102% in data set [1] (setting [6]); 102% in data set [1] (setting [7]); 93% in data set [1] (setting [8]); 94% in data set [1] (setting [9]). Also, in data set [4], the “Minimum Inhibitory Concentration (MIC) Staph. aureus ATCC43300” value was “xxxxx (xxxxx = <0.01)”.

Regarding `CCCCCCCCCCC(=O)N[C@@H](CCCCN)C(=O)N[C@@H](CCCCN)C(=O)N[C@@H](CCCCN)C(=O)N[C@@H](CCCCNC(=O)[C@H]1NC(=O)[C@H]2NC(=O)[C@H](NC(=O)[C@@H]3NC(=O)[C@H](CC(N)=O)NC(=O)[C@H](NC(=O)[C@@H](CC(C)C)NC)[C@H](O)c4ccc(c(Cl)c4)Oc4cc3cc(c4O[C@@H]3O[C@H](CO)[C@@H](O)[C@H](O)[C@H]3O[C@H]3C[C@](C)(N)[C@H](O)[C@H](C)O3)Oc3ccc(cc3Cl)[C@H]2O)c2ccc(O)c(c2)-c2c(O)cc(O)cc21)C(=O)O` [MCC_000229, nC10CO-KKK-K(Vanc)-OH], in data set [2], the “Minimum Inhibitory Concentration (MIC) S. pneumoniae ATCC 700677” value is listed as “xxx (xxx = 0.1-<1)”. Besides, the “Minimum Inhibitory Concentration (MIC) E. faecium ATCC51559” value in data set [3] is “xxxx (xxxx = 0.01-<0.1)”. Further, the “% compound remaining after incubation” value came to 100% in data set [1] (setting [5]); 87% in data set [1] (setting [6]); 87% in data set [1] (setting [7]); 83% in data set [1] (setting [8]); 93% in data set [1] (setting [9]). In addition, the “Minimum Inhibitory Concentration (MIC) Staph. aureus ATCC43300” value in data set [4] is “xxxx (xxxx = 0.01-<0.1)”.

Take “nC13CO-KKK-C(SS-nEt-NH-Vanc)-OH [MCC_000535, reference compound]”: the “% compound remaining after incubation” value is recorded as 100% in data set [1] (human, plasma, 0 h, pH 7.4); 77% in data set [1] (human, plasma, 1 h, pH 7.4); 64% in data set [1] (human, plasma, 3 h, pH 7.4); 51% in data set [1] (human, plasma, 6 h, pH 7.4); 3% in data set [1] (human, plasma, 24 h, pH 7.4).

The record behind these values is patent US10947271B2, “Antibacterial agents” (THE UNIVERSITY OF QUEENSLAND, priority 2014, dated 2021).
